Test system: 454973-116-R2-J3-PDC spheroids, viability, % test/control
Test: Anticancer human tumor 454973-116-R2-J3-PDC patient-derived pancreatic carcinoma cell line growth inhibition [GQUAD]
Conditions: spheroids with HUVEC and MSC; for IC50: curve of first compound; for viability, T/C: stronger effect = lower value
Procedure, shortened: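 Viability of tumor cells grown as complex spheroids with endothelial and stromal cells, exposed to drug combinations. Top concentration at or near clinical Cmax (else 10 microM), diluted in half-log increments.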

[1] = second compound 0.0316 µM, first compound 0.0316 µM
[2] = second compound 0.0316 µM, first compound 0.1 µM
[3] = second compound 0.0316 µM, first compound 0.316 µM
[4] = second compound 0.0316 µM, first compound 1 µM
[5] = second compound 0.0316 µM, first compound 3.16 µM
[6] = second compound 0.0316 µM, first compound 10 µM
[7] = second compound 0.1 µM, first compound 0.0316 µM
[8] = second compound 0.1 µM, first compound 0.1 µM
[9] = second compound 0.1 µM, first compound 0.316 µM
[10] = second compound 0.1 µM, first compound 1 µM
[11] = second compound 0.1 µM, first compound 3.16 µM
[12] = second compound 0.1 µM, first compound 10 µM
[13] = second compound 0.316 µM, first compound 0.0316 µM
[14] = second compound 0.316 µM, first compound 0.1 µM
[15] = second compound 0.316 µM, first compound 0.316 µM
[16] = second compound 0.316 µM, first compound 1 µM
[17] = second compound 0.316 µM, first compound 3.16 µM
[18] = second compound 0.316 µM, first compound 10 µM
[19] = second compound 1 µM, first compound 0.0316 µM
[20] = second compound 1 µM, first compound 0.1 µM
[21] = second compound 1 µM, first compound 0.316 µM
[22] = second compound 1 µM, first compound 1 µM
[23] = second compound 1 µM, first compound 3.16 µM
[24] = second compound 1 µM, first compound 10 µM
[25] = second compound 3.16 µM, first compound 0.0316 µM
[26] = second compound 3.16 µM, first compound 0.1 µM
[27] = second compound 3.16 µM, first compound 0.316 µM
[28] = second compound 3.16 µM, first compound 1 µM
[29] = second compound 3.16 µM, first compound 3.16 µM
[30] = second compound 3.16 µM, first compound 10 µM
[31] = second compound 10 µM, first compound 0.0316 µM
[32] = second compound 10 µM, first compound 0.1 µM
[33] = second compound 10 µM, first compound 0.316 µM
[34] = second compound 10 µM, first compound 1 µM
[35] = second compound 10 µM, first compound 3.16 µM
[36] = second compound 10 µM, first compound 10 µM
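Also: spheroids exposed to compounds for seven days.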
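For viability, T/C in this document: 100% = DMSO vehicle control viability.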

Work on `COc1cc(C2c3cc4c(cc3C(OC3OC5COC(C)OC5C(O)C3O)C3COC(=O)C23)OCO4)cc(OC)c1O` (centres undefined) + Cc1cnc(CNC(=O)c2c(=O)c3ccc(N4CCCN(C)CC4)nc3n3c2sc2ccccc23)cn1 yielded an IC50 (second compound 0.0316 µM) of 644 nM, an IC50 (second compound 0.1 µM) of 507 nM and an IC50 (second compound 0.316 µM) of 469 nM. The IC50 (second compound 1 µM) was 1060 nM, the IC50 (second compound 3.16 µM) was 1800 nM and the IC50 (second compound 10 µM) was under 31.6 nM. It also gave a viability, T/C [1] of 100%, a viability, T/C [2] of 80.6% and a viability, T/C [3] of 70.7%. It also gave a viability, T/C [4] of 39.3%, a viability, T/C [5] of 17.8% and a viability, T/C [6] of 12.4%. It also gave a viability, T/C [7] of 85%, a viability, T/C [8] of 73.7% and a viability, T/C [9] of 59.2%. It also gave a viability, T/C [10] of 35%, a viability, T/C [11] of 28.6% and a viability, T/C [12] of 12%. For the same compound, the viability, T/C [13] was 75.6%, the viability, T/C [14] was 73.9% and the viability, T/C [15] was 53%. It also gave a viability, T/C [16] of 38%, a viability, T/C [17] of 29.4% and a viability, T/C [18] of 16.7%. For the same compound, the viability, T/C [19] was 67.8%, the viability, T/C [20] was 61.8% and the viability, T/C [21] was 55.9%. For the same compound, the viability, T/C [22] was 51.5%, the viability, T/C [23] was 40.5% and the viability, T/C [24] was 21.9%. It also gave a viability, T/C [25] of 66.9%, a viability, T/C [26] of 68.4% and a viability, T/C [27] of 58.3%. For the same compound, the viability, T/C [28] was 53.7%, the viability, T/C [29] was 47.5% and the viability, T/C [30] was 31.3%. The viability, T/C [31] was 16.2%, the viability, T/C [32] was 17.1% and the viability, T/C [33] was 58.4%. It also gave a viability, T/C [34] of 49.7%, a viability, T/C [35] of 29.3% and a viability, T/C [36] of 0.59%.

`O=C(c1cc(Cc2n[nH]c(=O)c3ccccc23)ccc1F)N1CCN(C(=O)C2CC2)CC1` + Cc1cnc(CNC(=O)c2c(=O)c3ccc(N4CCCN(C)CC4)nc3n3c2sc2ccccc23)cn1 was tested, and the IC50 (second compound 0.0316 µM) was 9010 nM, the IC50 (second compound 0.1 µM) was 7580 nM and the IC50 (second compound 0.316 µM) was 6210 nM. The IC50 (second compound 1 µM) was over 10000 nM, the IC50 (second compound 3.16 µM) was over 10000 nM and the IC50 (second compound 10 µM) was under 31.6 nM. It also gave a viability, T/C [1] of 103%, a viability, T/C [2] of 85.1% and a viability, T/C [3] of 90.5%. The viability, T/C [4] was 82.8%, the viability, T/C [5] was 80.9% and the viability, T/C [6] was 46.5%. The viability, T/C [7] was 81.1%, the viability, T/C [8] was 80.4% and the viability, T/C [9] was 72.2%. The viability, T/C [10] was 65.5%, the viability, T/C [11] was 65.8% and the viability, T/C [12] was 44.5%. The viability, T/C [13] was 69.1%, the viability, T/C [14] was 67.4% and the viability, T/C [15] was 61.7%. The viability, T/C [16] was 65.3%, the viability, T/C [17] was 54.9% and the viability, T/C [18] was 45.9%. It also gave a viability, T/C [19] of 60.5%, a viability, T/C [20] of 65.3% and a viability, T/C [21] of 64%. For the same compound, the viability, T/C [22] was 63.7%, the viability, T/C [23] was 58.2% and the viability, T/C [24] was 55.4%. For the same compound, the viability, T/C [25] was 74.2%, the viability, T/C [26] was 69.1% and the viability, T/C [27] was 64%. It also gave a viability, T/C [28] of 60.9%, a viability, T/C [29] of 58.3% and a viability, T/C [30] of 56.2%. The viability, T/C [31] was 0.27%, the viability, T/C [32] was 18.9% and the viability, T/C [33] was 15.1%. It also gave a viability, T/C [34] of 35.9%, a viability, T/C [35] of 0.4% and a viability, T/C [36] of 0.28%.
